The structures appear in SMILES notation. Where only a bound is given, the exact number is not on record here.

This is an account of results in ChEMBL document CHEMBL5050827, “ATF6 inhibitors and uses thereof” (2020).

Test system in the first data set: not listed separately
Put plainly: Clearance in Balb/C mouse plasma at 10 mg/kg, po by LC-MS analysis. Type of data set: ADME, organism-based.
The term CL/F denotes the apparent clearance, not corrected for the fraction that reaches the circulation. As for `C[C@@H](c1ccc(C(F)(F)F)cc1C(F)(F)F)n1cc(NC(=O)c2cc(-c3ccccn3)on2)cn1`, the CL/F was 0.31 L/h/kg.

Take `O=C(Nc1cnn(Cc2ccc(C(F)(F)F)cc2C(F)(F)F)c1)c1cc(-c2ccco2)on1`: the CL/F was 231 L/h/kg.

The compound `C[C@H](c1ccc(C(F)(F)F)cc1C(F)(F)F)n1cc(NC(=O)c2nnc(-c3ccccn3)s2)cn1` gave a CL/F of 0.161 L/h/kg. Against the preceding compound, the CL/F is about 1400-fold lower.

Turning to `C[C@H](c1ccc(C(F)(F)F)cc1C(F)(F)F)n1cc(NC(=O)c2cc(-c3ccccn3)no2)cn1`, the CL/F is 0.221 L/h/kg. This CL/F and that of the compound before are within 1.5-fold of each other.

Consider `C[C@@H](c1ccc(C(F)(F)F)cc1C(F)(F)F)n1cc(NC(=O)c2cc(-c3ccco3)on2)cn1`, for which the CL/F was 16 L/h/kg.

As for `C[C@H](c1ccc(C(F)(F)F)cc1C(F)(F)F)n1cc(NC(=O)c2cc(-c3cnccn3)on2)cn1`, the CL/F was 0.0934 L/h/kg.

`O=C(Nc1cnn(Cc2ccc(C(F)(F)F)cc2C(F)(F)F)c1)c1cc(-c2ccccn2)on1` gave a CL/F of 0.971 L/h/kg.

Test system in a further data set: not listed separately
Put plainly: Inhibition of ATF6 activity in human U2OS cells in presence of ER stress inducer thapsigargin (Tg) measured by TRE-luciferase reporter assay. In kind it is cell-based. On the technique in general: In a reporter assay the amount or activity of a reporter protein is the signal.
For orientation: IC50 means the midpoint of a concentration-inhibition curve. In the case of `O=C(Nc1cnn(Cc2ccc(C(F)(F)F)cc2C(F)(F)F)c1)c1cc(-c2ccco2)on1`, the 50% inhibitory concentration (IC50) was below 1 µM.

With `C[C@H](c1ccc(C(F)(F)F)cc1C(F)(F)F)n1cc(NC(=O)c2cnc(-c3ccccn3)s2)cn1`, the IC50 entry is “in the range around 1 µM”.

For `Cc1c(NC(=O)c2cc(-c3ccccn3)on2)cnn1[C@H](C)c1ccc(C(F)(F)F)cc1C(F)(F)F`, the IC50 entry is “in the range around 1 µM”.

In the case of `O=C(Nc1cnn(Cc2ccc(C(F)(F)F)cc2C(F)(F)F)c1)c1cc(-c2ccncc2)on1`, the IC50 entry was “in the range around 1 µM”.

For the compound `C[C@@H](c1ccc(C(F)(F)F)cc1C(F)(F)F)n1cc(NC(=O)c2coc(-c3ccccn3)n2)cn1`, the IC50 was above 10 µM.

With `C[C@@H](c1ccc(C(F)(F)F)cc1C(F)(F)F)n1cc(NC(=O)c2nnc(-c3ccccn3)s2)cn1`, the IC50 result was “in the range around 1 µM”.

Turning to `Cc1ccc(-c2cc(C(=O)Nc3cnn(Cc4ccc(C(F)(F)F)cc4C(F)(F)F)c3)no2)o1`, the 50% inhibitory concentration (IC50) entry was “in the range around 1 µM”.

Regarding `C[C@H](c1ccc(F)cc1C(F)(F)F)n1cc(NC(=O)c2cc(-c3ccccn3)on2)cn1`, the IC50 entry was “in the range around 1 µM”.

As to `Cc1c(NC(=O)c2cc(-c3ccccn3)on2)cnn1Cc1ccc(C(F)(F)F)cc1C(F)(F)F`, the concentration for half-maximal inhibition (IC50) entry was “in the range around 1 µM”.

Take `O=C(Nc1cnn(Cc2ccccc2)c1)c1cc(-c2ccco2)on1`: the IC50 was above 10 µM.

As to `CC(c1ccc(C(F)(F)F)cc1C(F)(F)F)n1cc(NC(=O)c2cc(-c3cccs3)on2)cn1` (stereo not given), the IC50 result was “in the range around 1 µM”.

With `O=C(Nc1cnn(Cc2ccc(C(F)(F)F)cc2C(F)(F)F)c1)c1cnc(-c2ccccn2)s1`, the IC50 entry is “in the range around 1 µM”.

In the case of `O=C(Nc1cnn(Cc2ccc(C(F)(F)F)cc2)c1)c1cc(-c2ccco2)on1`, the IC50 was above 10 µM.

In the case of `CN(C(=O)c1cc(-c2ccccn2)on1)c1cnn(Cc2ccc(C(F)(F)F)cc2C(F)(F)F)c1`, the IC50 result is “in the range around 1 µM”.

Take `CC(c1ccc(C(F)(F)F)cc1C(F)(F)F)n1cc(NC(=O)c2cnc(-c3ccccn3)s2)cn1` (stereo not given): the IC50 entry is “in the range around 1 µM”.

For `O=C(Nc1cnn(C2CCc3ccccc32)c1)c1nnc(-c2ccco2)o1` (stereo not given), the IC50 is above 10 µM.

As to `C[C@@H](c1ccc(C(F)(F)F)cc1C(F)(F)F)n1cc(NC(=O)c2cnc(-c3ccccn3)o2)cn1`, the concentration for half-maximal inhibition (IC50) is above 10 µM.

Test system in the next data set: not listed separately
Put plainly: AUC (infinity) in Balb/C mouse plasma at 10 mg/kg, po by LC-MS analysis. In kind it is ADME, organism-based. The arrangement: route oral, time infinity, dose 10 mg/kg.
As a reminder, the AUC(0-inf) is total exposure, with the tail of the curve extrapolated. High values mean more exposure, low ones less exposure. In turn, `O=C(Nc1cnn(Cc2ccc(C(F)(F)F)cc2C(F)(F)F)c1)c1cc(-c2ccco2)on1` returned an AUC(0-inf) of 0.0433 µg·h/mL.

Test system in another data set: not listed separately
The data set is described as follows: AUC (last) in Balb/C mouse plasma at 10 mg/kg, po by LC-MS analysis. In kind it is ADME, organism-based. The arrangement: time 0 - last, route oral, dose 10 mg/kg.
What is called AUC(0-t) is the area under the concentration-time curve up to a stated or last time point. In the case of `O=C(Nc1cnn(Cc2ccc(C(F)(F)F)cc2C(F)(F)F)c1)c1cc(-c2ccco2)on1`, the area under the curve AUC(0-t) was 0.0391 µg·h/mL.

The subject of a further data set is U2OS. Put plainly: Inhibition of ATF6 activity in human U2OS cells at 1 uM in presence of ER stress inducer thapsigargin (Tg) measured by TRE-luciferase reporter assay relative to control. In kind it is cell-based.
As a reminder, the inhibition is the share of the control response that was lost under treatment. For `C[C@@H](c1ccc(C(F)(F)F)cc1C(F)(F)F)n1cc(NC(=O)c2cc(-c3ccccn3)on2)cn1`, the inhibition was above 50%.

Turning to `O=C(Nc1cnn(Cc2ccc(C(F)(F)F)cc2C(F)(F)F)c1)c1cc(-c2ccco2)on1`, the inhibition was above 50%.

As for `C[C@H](c1ccc(C(F)(F)F)cc1C(F)(F)F)n1cc(NC(=O)c2cnc(-c3ccccn3)s2)cn1`, the inhibition was found to be 25%.

Regarding `Cc1c(NC(=O)c2cc(-c3ccccn3)on2)cnn1[C@H](C)c1ccc(C(F)(F)F)cc1C(F)(F)F`, the inhibition amounted to 25%.

In the case of `C[C@@H](c1ccc(C(F)(F)F)cc1C(F)(F)F)n1cc(NC(=O)c2coc(-c3ccccn3)n2)cn1`, the inhibition was below 25%.

As for `Cc1nn([C@H](C)c2ccc(C(F)(F)F)cc2C(F)(F)F)cc1NC(=O)c1cc(-c2ccccn2)on1`, the inhibition turned out to be 25%.

On to `C[C@@H](c1ccc(C(F)(F)F)cc1C(F)(F)F)n1cc(NC(=O)c2nnc(-c3ccccn3)s2)cn1`, for which the inhibition was below 25%.

As for `O=C(Nc1cnn(Cc2ccc(C(F)(F)F)cc2C(F)(F)F)c1)c1cc(-c2cccs2)on1`, the inhibition stood at 25%.

As to `C[C@@H](c1ccc(C(F)(F)F)cc1C(F)(F)F)n1cc(NC(=O)c2nnc(-c3ccco3)s2)cn1`, the inhibition came out at 25%.

For `C[C@H](c1ccc(C(F)(F)F)cc1C(F)(F)F)n1cc(NC(=O)c2cc(-c3ccccn3)on2)cn1`, the inhibition was below 25%.

Consider `C[C@H](c1ccc(F)cc1C(F)(F)F)n1cc(NC(=O)c2cc(-c3ccccn3)on2)cn1`, for which the inhibition amounted to 25%.

In the case of `Cc1c(NC(=O)c2cc(-c3ccccn3)on2)cnn1Cc1ccc(C(F)(F)F)cc1C(F)(F)F`, the inhibition is 25%.

Consider `Cc1cccc(-c2cc(C(=O)Nc3cnn(Cc4ccc(C(F)(F)F)cc4C(F)(F)F)c3)no2)n1`, for which the inhibition worked out at 25%.

Regarding `C[C@H](c1ccc(C(F)(F)F)cc1C(F)(F)F)n1cc(NC(=O)c2nnc(-c3ccncn3)s2)cn1`, the inhibition is 25%.

`O=C(Nc1cnn(Cc2ccccc2)c1)c1cc(-c2ccco2)on1`: the inhibition was below 25%.

Consider `Cc1cccc(-c2cc(C(=O)Nc3cnn([C@H](C)c4ccc(C(F)(F)F)cc4C(F)(F)F)c3)no2)n1`, for which the inhibition worked out at 25%.

As for `C[C@H](c1ccc(C(F)(F)F)cc1C(F)(F)F)n1cc(NC(=O)c2cn(-c3ccccn3)nn2)cn1`, the inhibition was 25%.

Turning to `O=C(Nc1cnn(Cc2ccc(C(F)(F)F)cc2)c1)c1cc(-c2ccco2)on1`, the inhibition was below 25%.

For `CN(C(=O)c1cc(-c2ccccn2)on1)c1cnn(Cc2ccc(C(F)(F)F)cc2C(F)(F)F)c1`, the inhibition was 25%.

Take `CC(c1ccc(C(F)(F)F)cc1C(F)(F)F)n1cc(NC(=O)c2cc(-c3ccccn3)nn2C)cn1` (stereo not given): the inhibition was 25%.

Take `C[C@H](c1ccc(C(F)(F)F)cc1C(F)(F)F)n1cc(NC(=O)c2cc(-c3ccco3)on2)cn1`: the inhibition is below 25%.

Turning to `O=C(Nc1cnn(C2CCc3ccccc32)c1)c1nnc(-c2ccco2)o1` (stereo not given), the inhibition was below 25%.

`C[C@@H](c1ccc(C(F)(F)F)cc1C(F)(F)F)n1cc(NC(=O)c2cnc(-c3ccccn3)o2)cn1`: the inhibition is below 25%.

Test system in another data set: not listed separately
The data set is described as follows: Half-life in Balb/C mouse plasma at 10 mg/kg, po by LC-MS analysis. In kind it is ADME, organism-based.
For orientation: half-life means the time in which the quantity being followed falls by half. With `O=C(Nc1cnn(Cc2ccc(C(F)(F)F)cc2C(F)(F)F)c1)c1cc(-c2ccco2)on1`, the half-life is 2.49 h.
